Data as given in patent US8975441B2, “Process for preparing 2.2-dibromomalonamide” (Dow Global Technologies LLC, priority 2009, dated 2015).

Format: physicochemical
Conditions: pH 7
Text: It has been discovered and is believed that the alkali earth metal base, which in some embodiments is part of the nitrile-amide-conversion composition, acts at basic pH values (i.e., at pH values greater than pH 7.0) to undesirably promote degradation of 2,2-dibromo-3-cyanoacetamide to undesirable products. […] As pH of the nitrile-amide-conversion composition becomes increasingly basic, the alkali earth metal base degrades increasing amounts of 2,2-dibromo-3-cyanoacetamide. This base-promoted degradation of 2,2-dibromo-3-cyanoacetamide is especially prevalent at pH 9.0 and higher. The invention process advantageously maintains pH of the reaction mixture in situ during conversion of 2,2-dibromo-3-cyanoacetamide to 2,2-dibromomalonamide in a pH range that minimizes or prevents base-promoted degradation of 2,2-dibromo-3-cyanoacetamide while at the same time facilitates the base-catalyzed conversion thereof to 2,2-dibromomalonamide.

With `NC(=O)C(Br)(Br)C(N)=O` [2,2-dibromomalonamide] the “stability relative to 2,2-dibromo-3-cyanoacetamide” value was at least 10 times.
